Patent publication US9637483B2, “Heterocyclic compound” (TAKEDA PHARMACEUTICAL COMPANY LIMITED, priority 2013, dated 2017)

Experiments:
Format in all cases: biochemical
[1] = target: T1, JAK1 (Homo sapiens, UniProt P23458); assay: JAK1 enzyme inhibition test (LANCE method); settings: 1 μM test compound; read-out: JAK1 enzyme inhibitory activity (%, 1 μM)
T1 construct: purchased Invitrogen
Outline: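 Inhibition expressed against no-enzyme wells (100% inhibition), from time-resolved fluorescence at 665 nm after Eu-anti-phosphotyrosine antibody/EDTA detection. Kinase reaction ran 1 h at room temperature, pH 7.5 HEPES buffer, ULight-JAK1 substrate and ATP diluted to 300 nM and 150 μM before addition.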

[2] = target: T2, JAK2 (Homo sapiens, UniProt O60674); assay: JAK2 enzyme inhibition test (LANCE method); settings: 1 μM test compound; read-out: JAK2 enzyme inhibitory activity (%, 1 μM)
T2 construct: purchased Invitrogen
T2 sequence (O60674 whole entry): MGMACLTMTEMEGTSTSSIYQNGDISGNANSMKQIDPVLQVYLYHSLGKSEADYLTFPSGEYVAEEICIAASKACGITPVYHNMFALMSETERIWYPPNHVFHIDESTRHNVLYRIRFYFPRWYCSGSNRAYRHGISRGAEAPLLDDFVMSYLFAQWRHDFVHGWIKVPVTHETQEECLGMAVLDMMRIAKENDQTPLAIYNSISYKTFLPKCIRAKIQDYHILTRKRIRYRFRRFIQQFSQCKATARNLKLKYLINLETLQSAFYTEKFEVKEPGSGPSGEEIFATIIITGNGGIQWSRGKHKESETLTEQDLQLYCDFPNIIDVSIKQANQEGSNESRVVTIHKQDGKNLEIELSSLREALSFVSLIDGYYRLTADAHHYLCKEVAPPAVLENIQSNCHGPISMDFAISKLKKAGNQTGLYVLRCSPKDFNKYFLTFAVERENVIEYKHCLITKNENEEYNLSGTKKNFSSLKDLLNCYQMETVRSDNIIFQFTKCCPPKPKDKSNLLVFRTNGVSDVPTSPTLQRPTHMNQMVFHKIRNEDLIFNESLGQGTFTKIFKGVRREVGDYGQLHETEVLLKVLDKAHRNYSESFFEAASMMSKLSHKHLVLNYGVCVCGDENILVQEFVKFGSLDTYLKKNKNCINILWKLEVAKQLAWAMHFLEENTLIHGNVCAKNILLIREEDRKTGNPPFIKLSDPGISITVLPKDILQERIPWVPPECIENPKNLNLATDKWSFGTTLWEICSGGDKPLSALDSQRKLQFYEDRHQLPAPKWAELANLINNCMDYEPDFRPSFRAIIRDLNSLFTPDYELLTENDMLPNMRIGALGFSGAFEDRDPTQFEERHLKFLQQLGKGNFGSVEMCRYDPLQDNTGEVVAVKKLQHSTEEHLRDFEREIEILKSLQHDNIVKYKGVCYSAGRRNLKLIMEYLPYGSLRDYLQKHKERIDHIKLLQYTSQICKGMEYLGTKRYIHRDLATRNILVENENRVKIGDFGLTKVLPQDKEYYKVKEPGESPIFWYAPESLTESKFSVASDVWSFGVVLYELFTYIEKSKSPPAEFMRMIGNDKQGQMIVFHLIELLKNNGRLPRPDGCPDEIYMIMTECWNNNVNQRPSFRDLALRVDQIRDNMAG
Outline: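 TR-FRET (LANCE) read-out, ex 340/em 665 nm with 100 μs delay, after 1 hr room-temperature detection with europium anti-phosphotyrosine antibody and 20 mM EDTA. The preceding 1 hr kinase reaction combined JAK2, ULight-JAK1 substrate and ATP, added as 6 ng/mL, 300 nM and 45 μM solutions; enzyme-free wells defined 100% inhibition.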

[3] = target: T3, JAK3 (Homo sapiens, UniProt P52333); assay: JAK3 enzyme inhibition test (LANCE method); settings: 1 μM test compound; read-out: JAK3 enzyme inhibitory activity (%, 1 μM)
T3 construct: purchased Invitrogen
T3 sequence (P52333 1-1124): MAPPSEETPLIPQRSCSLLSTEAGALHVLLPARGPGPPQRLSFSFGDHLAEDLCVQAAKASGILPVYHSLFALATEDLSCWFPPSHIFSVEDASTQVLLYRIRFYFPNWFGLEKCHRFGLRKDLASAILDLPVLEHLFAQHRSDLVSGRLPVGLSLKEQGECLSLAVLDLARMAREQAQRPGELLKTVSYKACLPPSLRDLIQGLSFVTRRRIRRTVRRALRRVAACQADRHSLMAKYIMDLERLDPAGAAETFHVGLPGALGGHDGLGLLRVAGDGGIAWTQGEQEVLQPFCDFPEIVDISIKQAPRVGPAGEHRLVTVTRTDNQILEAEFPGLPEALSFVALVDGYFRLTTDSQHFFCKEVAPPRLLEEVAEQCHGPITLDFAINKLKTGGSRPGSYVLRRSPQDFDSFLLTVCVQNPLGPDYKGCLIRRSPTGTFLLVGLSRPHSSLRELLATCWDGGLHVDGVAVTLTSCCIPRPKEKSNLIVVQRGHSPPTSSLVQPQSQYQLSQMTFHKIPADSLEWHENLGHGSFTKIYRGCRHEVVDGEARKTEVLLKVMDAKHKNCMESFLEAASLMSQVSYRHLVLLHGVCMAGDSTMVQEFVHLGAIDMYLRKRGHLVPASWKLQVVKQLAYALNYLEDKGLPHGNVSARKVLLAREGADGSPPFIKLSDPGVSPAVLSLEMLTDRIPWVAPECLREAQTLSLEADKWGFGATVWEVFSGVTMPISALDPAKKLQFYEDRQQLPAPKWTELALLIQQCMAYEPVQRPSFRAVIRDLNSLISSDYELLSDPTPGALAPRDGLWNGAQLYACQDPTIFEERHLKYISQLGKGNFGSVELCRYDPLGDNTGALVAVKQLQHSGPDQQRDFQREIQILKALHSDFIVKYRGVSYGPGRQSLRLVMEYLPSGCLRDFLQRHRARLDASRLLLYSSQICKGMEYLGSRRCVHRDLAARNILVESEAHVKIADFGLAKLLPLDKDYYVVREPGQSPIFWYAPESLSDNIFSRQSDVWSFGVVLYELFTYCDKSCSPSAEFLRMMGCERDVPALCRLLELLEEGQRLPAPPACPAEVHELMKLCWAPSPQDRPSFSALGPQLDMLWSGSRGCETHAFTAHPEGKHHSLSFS
Outline: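 TR-FRET (LANCE) read: 1 h room-temperature reaction, EDTA quench, Eu-anti-phosphotyrosine antibody, emission 665 nm after 340 nm excitation. Added solutions held 12 ng/mL JAK3, 300 nM ULight-JAK1 substrate and 15 μM ATP (pH 7.5 HEPES). Activity expressed against no-enzyme wells defined as full inhibition.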

[4] = target: T4, TYK2 (Homo sapiens, UniProt P29597); assay: TYK2 enzyme inhibition test (LANCE method); settings: 1 μM test compound; read-out: TYK2 enzyme inhibitory activity (%, 1 μM)
T4 construct: purchased Invitrogen
T4 sequence (P29597 whole entry): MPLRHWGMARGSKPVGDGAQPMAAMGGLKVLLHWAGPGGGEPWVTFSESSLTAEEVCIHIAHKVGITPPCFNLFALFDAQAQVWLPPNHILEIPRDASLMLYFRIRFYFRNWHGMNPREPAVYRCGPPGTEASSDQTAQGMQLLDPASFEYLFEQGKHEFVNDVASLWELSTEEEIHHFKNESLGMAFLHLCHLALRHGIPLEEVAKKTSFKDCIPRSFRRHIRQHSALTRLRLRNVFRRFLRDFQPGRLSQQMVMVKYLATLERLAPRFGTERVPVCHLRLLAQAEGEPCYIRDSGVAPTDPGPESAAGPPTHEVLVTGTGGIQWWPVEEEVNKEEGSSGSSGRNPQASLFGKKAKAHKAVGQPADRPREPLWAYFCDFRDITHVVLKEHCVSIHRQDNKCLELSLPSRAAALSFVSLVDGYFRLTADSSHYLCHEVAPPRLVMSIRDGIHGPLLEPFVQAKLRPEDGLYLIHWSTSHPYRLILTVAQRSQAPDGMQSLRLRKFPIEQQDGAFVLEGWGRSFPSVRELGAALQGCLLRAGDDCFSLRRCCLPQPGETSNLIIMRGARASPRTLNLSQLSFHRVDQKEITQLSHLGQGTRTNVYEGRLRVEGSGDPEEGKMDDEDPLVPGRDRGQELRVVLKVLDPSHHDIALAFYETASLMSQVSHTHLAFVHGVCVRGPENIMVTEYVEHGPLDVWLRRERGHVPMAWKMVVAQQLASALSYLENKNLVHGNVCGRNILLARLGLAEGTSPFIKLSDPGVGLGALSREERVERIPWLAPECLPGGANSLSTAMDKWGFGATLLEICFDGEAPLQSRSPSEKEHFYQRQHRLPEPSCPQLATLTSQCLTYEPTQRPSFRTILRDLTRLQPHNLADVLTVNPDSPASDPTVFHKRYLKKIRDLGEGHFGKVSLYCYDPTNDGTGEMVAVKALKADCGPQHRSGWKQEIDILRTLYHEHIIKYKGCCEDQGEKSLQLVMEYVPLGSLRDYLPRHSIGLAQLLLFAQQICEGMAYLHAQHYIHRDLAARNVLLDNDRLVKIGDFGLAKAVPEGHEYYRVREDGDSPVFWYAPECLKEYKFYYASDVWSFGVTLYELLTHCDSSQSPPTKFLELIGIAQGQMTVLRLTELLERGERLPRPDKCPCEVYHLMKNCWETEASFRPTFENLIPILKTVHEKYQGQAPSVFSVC
Outline: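 TR-FRET (LANCE) readout: after 1 h room-temperature kinase reaction, EDTA plus 4 nM Eu-labelled anti-phosphotyrosine antibody added, signal at 665 nm (340 nm excitation). Reaction combined TYK2, ULight-JAK1 substrate and ATP, prepared at 375 ng/mL, 300 nM and 30 μM before addition, in pH 7.5 HEPES/MgCl2 buffer; enzyme-free wells define full inhibition.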

T1 sequence (P23458 whole entry): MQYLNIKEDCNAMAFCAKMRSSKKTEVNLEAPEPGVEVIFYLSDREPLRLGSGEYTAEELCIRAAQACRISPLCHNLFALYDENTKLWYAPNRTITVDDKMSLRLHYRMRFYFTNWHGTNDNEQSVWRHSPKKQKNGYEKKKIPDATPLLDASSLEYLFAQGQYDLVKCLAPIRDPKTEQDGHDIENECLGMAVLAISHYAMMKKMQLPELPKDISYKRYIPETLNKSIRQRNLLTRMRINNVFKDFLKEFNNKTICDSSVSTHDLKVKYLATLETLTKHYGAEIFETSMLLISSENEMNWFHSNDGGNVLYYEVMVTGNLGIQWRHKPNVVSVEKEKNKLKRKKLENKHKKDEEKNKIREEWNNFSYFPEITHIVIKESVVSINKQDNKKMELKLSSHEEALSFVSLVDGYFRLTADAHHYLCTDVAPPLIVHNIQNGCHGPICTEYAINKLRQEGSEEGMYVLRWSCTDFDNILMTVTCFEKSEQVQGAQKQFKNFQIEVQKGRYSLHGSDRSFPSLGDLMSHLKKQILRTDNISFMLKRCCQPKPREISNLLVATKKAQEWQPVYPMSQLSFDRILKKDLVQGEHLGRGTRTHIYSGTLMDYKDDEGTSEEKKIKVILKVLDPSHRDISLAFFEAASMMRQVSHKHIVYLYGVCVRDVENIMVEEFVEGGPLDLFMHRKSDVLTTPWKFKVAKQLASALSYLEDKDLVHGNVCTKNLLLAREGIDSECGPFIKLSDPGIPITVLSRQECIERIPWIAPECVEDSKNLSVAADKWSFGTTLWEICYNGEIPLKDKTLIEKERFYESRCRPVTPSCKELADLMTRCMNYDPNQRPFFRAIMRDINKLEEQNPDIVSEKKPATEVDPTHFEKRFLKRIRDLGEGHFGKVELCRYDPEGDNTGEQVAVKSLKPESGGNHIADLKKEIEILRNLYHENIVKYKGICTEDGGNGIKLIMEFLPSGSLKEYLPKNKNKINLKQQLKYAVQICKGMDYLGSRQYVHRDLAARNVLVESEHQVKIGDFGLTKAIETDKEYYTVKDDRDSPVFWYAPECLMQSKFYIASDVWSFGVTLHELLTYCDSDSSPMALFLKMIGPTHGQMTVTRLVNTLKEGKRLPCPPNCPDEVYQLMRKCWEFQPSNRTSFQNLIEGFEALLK

Compound	inhibition at 1 µM [1] [%]	inhibition at 1 µM [2] [%]	inhibition at 1 µM [3] [%]	inhibition at 1 µM [4] [%]
CC(C)[C@H](C)n1cc(-c2cc(C(F)(F)F)n(C)n2)c2[nH]nc(N)c2c1=O [Example 42, 3-amino-5-((2S)-3-methylbutan-2-yl)-7-(1-methyl-5-(trifluoromethyl)-1H-pyrazol-3-yl)-1,5-dihydro-4H-pyrazolo[4,3-c]pyridin-4-one]	96	96	99	98
CC(C)[C@H](C)n1cc(-c2cc(C3CC3)n(C)n2)c2[nH]nc(N)c2c1=O [Example 43, 3-amino-7-(5-cyclopropyl-1-methyl-1H-pyrazol-3-yl)-5-((2S)-3-methylbutan-2-yl)-1,5-dihydro-4H-pyrazolo[4,3-c]pyridin-4-one]	97	97	99	100
CC(C)[C@H](C)n1cc(-c2cc(CN3CCCC3)n(C)n2)c2[nH]nc(N)c2c1=O [Example 44, 3-amino-5-((2S)-3-methylbutan-2-yl)-7-(1-methyl-5-(pyrrolidin-1-ylmethyl)-1H-pyrazol-3-yl)-1,5-dihydro-4H-pyrazolo[4,3-c]pyridin-4-one]	90	96	99	101
CC(C)[C@H](C)n1cc(-c2cc(C(=O)N3CCS(=O)(=O)CC3)n(C)n2)c2[nH]nc(N)c2c1=O [Example 45, 3-amino-7-(5-((1,1-dioxidothiomorpholin-4-yl)carbonyl)-1-methyl-1H-pyrazol-3-yl)-5-((2S)-3-methylbutan-2-yl)-1,5-dihydro-4H-pyrazolo[4,3-c]pyridin-4-one]	98	99	99	100
COCCN(C)C(=O)c1cc(-c2cn([C@@H](C)C(C)C)c(=O)c3c(N)n[nH]c23)nn1C [Example 46, 3-(3-amino-5-((2S)-3-methylbutan-2-yl)-4-oxo-4,5-dihydro-1H-pyrazolo[4,3-c]pyridin-7-yl)-N-(2-methoxyethyl)-N,1-dimethyl-1H-pyrazole-5-carboxamide]	95	98	99	99
CC(C)[C@H](C)n1cc(-c2cc(CN3CCS(=O)(=O)CC3)n(C)n2)c2[nH]nc(N)c2c1=O [Example 47, 3-amino-7-(5-((1,1-dioxidothiomorpholin-4-yl)methyl)-1-methyl-1H-pyrazol-3-yl)-5-((2S)-3-methylbutan-2-yl)-1,5-dihydro-4H-pyrazolo[4,3-c]pyridin-4-one]	93	98	100	99
CC(C)[C@H](C)n1cc(-c2cc(N3CCCCC3=O)n(C)n2)c2[nH]nc(N)c2c1=O [Example 48, 3-amino-5-((2S)-3-methylbutan-2-yl)-7-(1-methyl-5-(2-oxopiperidin-1-yl)-1H-pyrazol-3-yl)-1,5-dihydro-4H-pyrazolo[4,3-c]pyridin-4-one]	94	97	100	99
CC(C)[C@H](C)n1cc(-c2cc(N3CCOCC3=O)n(C)n2)c2[nH]nc(N)c2c1=O [Example 49, 3-amino-5-((2S)-3-methylbutan-2-yl)-7-(1-methyl-5-(3-oxomorpholin-4-yl)-1H-pyrazol-3-yl)-1,5-dihydro-4H-pyrazolo[4,3-c]pyridin-4-one]	96	97	100	99
CC(C)[C@H](C)n1cc(-c2cc(C(=O)N(C)C3CCCC3)n(C)n2)c2[nH]nc(N)c2c1=O [Example 50, 3-(3-amino-5-((2S)-3-methylbutan-2-yl)-4-oxo-4,5-dihydro-1H-pyrazolo[4,3-c]pyridin-7-yl)-N-cyclopentyl-N,1-dimethyl-1H-pyrazole-5-carboxamide]	96	99	100	99
CC(=O)NCC(C)(C)c1cc(-c2cn([C@@H](C)C(C)C)c(=O)c3c(N)n[nH]c23)nn1C [Example 51, N-(2-(3-(3-amino-5-((2S)-3-methylbutan-2-yl)-4-oxo-4,5-dihydro-1H-pyrazolo[4,3-c]pyridin-7-yl)-1-methyl-1H-pyrazol-5-yl)-2-methylpropyl)acetamide]	97	97	97	99
CC(C)[C@H](C)n1cc(-c2cc(CN3CCCC3=O)n(C)n2)c2[nH]nc(N)c2c1=O [Example 52, 3-amino-5-((2S)-3-methylbutan-2-yl)-7-(1-methyl-5-((2-oxopyrrolidin-1-yl)methyl)-1H-pyrazol-3-yl)-1,5-dihydro-4H-pyrazolo[4,3-c]pyridin-4-one]	96	99	99	100
CC(C)[C@H](C)n1cc(-c2cc(C(=O)N(C)C3CCOCC3)n(C)n2)c2[nH]nc(N)c2c1=O [Example 53, 3-(3-amino-5-((2S)-3-methylbutan-2-yl)-4-oxo-4,5-dihydro-1H-pyrazolo[4,3-c]pyridin-7-yl)-N,1-dimethyl-N-(tetrahydro-2H-pyran-4-yl)-1H-pyrazole-5-carboxamide]	95	96	99	98
CC(C)[C@H](C)n1cc(-c2cc(N3CCOC3=O)n(C)n2)c2[nH]nc(N)c2c1=O [Example 54, 3-amino-5-((2S)-3-methylbutan-2-yl)-7-(1-methyl-5-(2-oxo-1,3-oxazolidin-3-yl)-1H-pyrazol-3-yl)-1,5-dihydro-4H-pyrazolo[4,3-c]pyridin-4-one]	98	98	99	98
CC(C)[C@H](C)n1cc(-c2cc(N3CCCC3=O)n(C)n2)c2[nH]nc(N)c2c1=O [Example 55, 3-amino-5-((2S)-3-methylbutan-2-yl)-7-(1-methyl-5-(2-oxopyrrolidin-1-yl)-1H-pyrazol-3-yl)-1,5-dihydro-4H-pyrazolo[4,3-c]pyridin-4-one]	98	98	99	99
CC(C)[C@H](C)n1cc(-c2cc(C(C)(C)C(=O)N(C)C)n(C)n2)c2[nH]nc(N)c2c1=O [Example 56, 2-(3-(3-amino-5-((2S)-3-methylbutan-2-yl)-4-oxo-4,5-dihydro-1H-pyrazolo[4,3-c]pyridin-7-yl)-1-methyl-1H-pyrazol-5-yl)-N,N,2-trimethylpropanamide]	70	94	94	98
